Laboratory results taken from PubChem BioAssay AID1845199 (Molecular Pharmacology Branch, DTP, NCI, 2023).

Test system: 556581-035-R-J1 tumor spheroid viability, % test/control
Assay: Anticancer human tumor 556581-035-R-J1 patient-derived ovarian carcinoma cell line growth inhibition
Settings: spheroids with HUVEC and MSC; for IC50: curve of first compound; for viability, T/C: stronger effect = lower value; active = viability on the fitted dose curve at most 10% of control; inactive = the rest
Method in brief: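 Complex tumor spheroids combined malignant cells with endothelial cells and mesenchymal stem cells. DNA-damaging drugs and DNA repair inhibitors were tested alone and in combination, at half-log dilutions down from clinical Cmax (top 10 microM if Cmax unknown), 0.25% DMSO final.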

[1] = second compound 0.003 µM, first compound 0.0316 µM
[2] = second compound 0.003 µM, first compound 0.1 µM
[3] = second compound 0.003 µM, first compound 0.316 µM
[4] = second compound 0.003 µM, first compound 1 µM
[5] = second compound 0.003 µM, first compound 3.16 µM
[6] = second compound 0.003 µM, first compound 10 µM
[7] = second compound 0.00949 µM, first compound 0.0316 µM
[8] = second compound 0.00949 µM, first compound 0.1 µM
[9] = second compound 0.00949 µM, first compound 0.316 µM
[10] = second compound 0.00949 µM, first compound 1 µM
[11] = second compound 0.00949 µM, first compound 3.16 µM
[12] = second compound 0.00949 µM, first compound 10 µM
[13] = second compound 0.03 µM, first compound 0.0316 µM
[14] = second compound 0.03 µM, first compound 0.1 µM
[15] = second compound 0.03 µM, first compound 0.316 µM
[16] = second compound 0.03 µM, first compound 1 µM
[17] = second compound 0.03 µM, first compound 3.16 µM
[18] = second compound 0.03 µM, first compound 10 µM
[19] = second compound 0.0949 µM, first compound 0.0316 µM
[20] = second compound 0.0949 µM, first compound 0.1 µM
[21] = second compound 0.0949 µM, first compound 0.316 µM
[22] = second compound 0.0949 µM, first compound 1 µM
[23] = second compound 0.0949 µM, first compound 3.16 µM
[24] = second compound 0.0949 µM, first compound 10 µM
[25] = second compound 0.3 µM, first compound 0.0316 µM
[26] = second compound 0.3 µM, first compound 0.1 µM
[27] = second compound 0.3 µM, first compound 0.316 µM
[28] = second compound 0.3 µM, first compound 1 µM
[29] = second compound 0.3 µM, first compound 3.16 µM
[30] = second compound 0.3 µM, first compound 10 µM
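Also: spheroids exposed to compounds for 7 days before viability read.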

CC1COCCN1c1cc(-c2ccnn2C)c2ccnc(-c3ccn[nH]3)c2n1 (stereo not given) + CC[C@@]1(O)C(=O)OCc2c1cc1n(c2=O)Cc2cc3c(CN(C)C)c(O)ccc3nc2-1
< 0.0316 µM: IC50 (second compound 0.03 µM) | IC50 (second compound 0.0949 µM) | IC50 (second compound 0.3 µM)
0.141 µM: IC50 (second compound 0.00949 µM)
0.317 µM: IC50 (second compound 0.003 µM)
inactive: viability, T/C [1] 85.3% | viability, T/C [2] 66.5% | viability, T/C [3] 50.2% | viability, T/C [4] 39% | viability, T/C [5] 33.7% | viability, T/C [6] 30.8% | viability, T/C [7] 68.9% | viability, T/C [8] 53.5% | viability, T/C [9] 40.9% | viability, T/C [10] 38.1% | viability, T/C [11] 31.6% | viability, T/C [12] 29.2% | viability, T/C [13] 42% | viability, T/C [14] 35.3% | viability, T/C [15] 35.5% | viability, T/C [16] 35.1% | viability, T/C [17] 29.8% | viability, T/C [18] 28.4% | viability, T/C [19] 21.6% | viability, T/C [20] 20% | viability, T/C [21] 20.5% | viability, T/C [22] 26.5% | viability, T/C [23] 27.1% | viability, T/C [24] 27%
active: viability, T/C [25] 4.51% | viability, T/C [26] 5.08% | viability, T/C [27] 6.11% | viability, T/C [28] 10.5% | viability, T/C [29] 16.3% | viability, T/C [30] 15.6%

COc1cc(C)[nH]c(=O)c1CN1CCc2c(Cl)cc(C(OC)C3COC3)c(Cl)c2C1=O (stereo not given) + CC[C@@]1(O)C(=O)OCc2c1cc1n(c2=O)Cc2cc3c(CN(C)C)c(O)ccc3nc2-1
inactive: viability, T/C [1] 93.5% | viability, T/C [2] 103% | viability, T/C [3] 98.2% | viability, T/C [4] 101% | viability, T/C [5] 101% | viability, T/C [6] 94.9% | viability, T/C [7] 90% | viability, T/C [8] 92.1% | viability, T/C [9] 85.8% | viability, T/C [10] 87.1% | viability, T/C [11] 91.5% | viability, T/C [12] 86.3% | viability, T/C [13] 64.9% | viability, T/C [14] 65.1% | viability, T/C [15] 64.3% | viability, T/C [16] 65.3% | viability, T/C [17] 67.9% | viability, T/C [18] 65.4% | viability, T/C [19] 45.3% | viability, T/C [20] 48.7% | viability, T/C [21] 49.9% | viability, T/C [22] 49.2% | viability, T/C [23] 47.9% | viability, T/C [24] 47.1% | viability, T/C [25] 13.2% | viability, T/C [26] 9.94% | viability, T/C [27] 12.4% | viability, T/C [28] 12% | viability, T/C [29] 10.7% | viability, T/C [30] 11.1%
> 10 µM: IC50 (second compound 0.003 µM) | IC50 (second compound 0.00949 µM) | IC50 (second compound 0.03 µM)
< 0.0316 µM: IC50 (second compound 0.0949 µM) | IC50 (second compound 0.3 µM)

Cc1cc(C)c(CNC(=O)c2cc(-c3ccc(CN4CCOCC4)cc3)cc3c2cnn3C2CCCC2)c(=O)[nH]1 + CC[C@@]1(O)C(=O)OCc2c1cc1n(c2=O)Cc2cc3c(CN(C)C)c(O)ccc3nc2-1
inactive: viability, T/C [1] 97% | viability, T/C [2] 85.4% | viability, T/C [3] 89% | viability, T/C [4] 84% | viability, T/C [5] 99.7% | viability, T/C [6] 87.4% | viability, T/C [7] 95.9% | viability, T/C [8] 87.7% | viability, T/C [9] 78.8% | viability, T/C [10] 72.5% | viability, T/C [11] 87.4% | viability, T/C [12] 83.8% | viability, T/C [13] 74.2% | viability, T/C [14] 72.9% | viability, T/C [15] 70.3% | viability, T/C [16] 67.1% | viability, T/C [17] 66.8% | viability, T/C [18] 70.4% | viability, T/C [19] 60.1% | viability, T/C [20] 56.6% | viability, T/C [21] 57.1% | viability, T/C [22] 56.3% | viability, T/C [23] 53.5% | viability, T/C [24] 43.1% | viability, T/C [25] 19.3% | viability, T/C [26] 22.9% | viability, T/C [27] 19.6% | viability, T/C [28] 19.2% | viability, T/C [29] 15.6% | viability, T/C [30] 11.3%
> 10 µM: IC50 (second compound 0.003 µM) | IC50 (second compound 0.00949 µM) | IC50 (second compound 0.03 µM)
< 0.0316 µM: IC50 (second compound 0.3 µM)
4.51 µM: IC50 (second compound 0.0949 µM)

[2H]c1nc(C)nc([2H])c1-c1cc(NC[C@@H](C)c2cccc3c(C(=O)NC)ccnc23)ncn1 + CC[C@@]1(O)C(=O)OCc2c1cc1n(c2=O)Cc2cc3c(CN(C)C)c(O)ccc3nc2-1
> 10 µM: IC50 (second compound 0.003 µM) | IC50 (second compound 0.00949 µM) | IC50 (second compound 0.03 µM)
inactive: viability, T/C [1] 101% | viability, T/C [2] 104% | viability, T/C [3] 101% | viability, T/C [4] 104% | viability, T/C [5] 102% | viability, T/C [6] 101% | viability, T/C [7] 94.9% | viability, T/C [8] 101% | viability, T/C [9] 95.7% | viability, T/C [10] 89.8% | viability, T/C [11] 93.7% | viability, T/C [12] 93.1% | viability, T/C [13] 78.7% | viability, T/C [14] 75.7% | viability, T/C [15] 72.4% | viability, T/C [16] 74.5% | viability, T/C [17] 78.3% | viability, T/C [18] 79% | viability, T/C [19] 54.6% | viability, T/C [20] 56% | viability, T/C [21] 55.6% | viability, T/C [22] 52.6% | viability, T/C [23] 50.7% | viability, T/C [24] 49% | viability, T/C [25] 13.8% | viability, T/C [26] 13.9% | viability, T/C [27] 11.5% | viability, T/C [28] 9.66% | viability, T/C [29] 12.9% | viability, T/C [30] 8.88%
< 0.0316 µM: IC50 (second compound 0.3 µM)
5.69 µM: IC50 (second compound 0.0949 µM)
